Data taken from patent US8124793B2, “Derivatives of ethylene methanedisulfonate as cancer chemotherapeutic agents” (priority 2007, dated 2012).

Columns and labels:
Assay type in all cases: cell-based
HL-60 (TB) = assay: NCI screen, growth of human tumor cells: Leukemia HL-60 (TB); conditions: HL-60 (TB) (Leukemia), 10^−4 molar
Method: (§1) In the NCI screening process, each compound was tested and described by a minimum of 60 data points. The test data include, but are not limited to the type of cancer, the molar concentration used in the screen, and the percent growth of the cancer. In some cases, NMR and elemental analysis were used for structural assignment.

RPMI-8226 = assay: NCI screen, growth of human tumor cells: Leukemia RPMI-8226; conditions: RPMI-8226 (Leukemia), 10^−4 molar
Method in brief: (§2)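 At least 60 data points describe each compound tested by NCI. Cancer type, molar concentration in the screen and percent growth make up the recorded data.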

NCI-H226 = assay: NCI screen, growth of human tumor cells: Non-Small Cell Lung NCI-H226; conditions: NCI-H226 (Non-Small Cell Lung), 10^−4 molar
Method in brief: as §2

BT-549 = assay: NCI screen, growth of human tumor cells: Breast Cancer BT-549; conditions: BT-549, 10^−4 molar
Method in brief: as §2

NCI-H23 = assay: NCI screen, growth of human tumor cells: Non-Small Cell Lung NCI-H23; conditions: NCI-H23, 10^−4 molar
Method in brief: as §2

UO-31 = assay: NCI screen, growth of human tumor cells: Renal Cancer UO-31; conditions: UO-31 (Renal Cancer), 10^−4 molar
Method in brief: as §2

UACC-62 = assay: NCI screen, growth of human tumor cells: Melanoma UACC-62
Method in brief: as §2

HCC-2998 = assay: NCI screen, growth of human tumor cells: HCC-2998 (listed under Non-Small Cell Lung); conditions: HCC-2998, 10^−4 molar
Method: as §1

HCT-15 = assay: NCI screen, growth of human tumor cells: Colon Cancer HCT-15; conditions: HCT-15, 10^−4 molar
Method in brief: as §2

M14 = assay: NCI screen, growth of human tumor cells: Melanoma M14; conditions: M14, 10^−4 molar
Method in brief: as §2

SK-MEL-2 = assay: NCI screen, growth of human tumor cells: Melanoma SK-MEL-2; conditions: SK-MEL-2 (Melanoma), 10^−4 molar
Method: as §1

MOLT-4 = assay: NCI screen, growth of human tumor cells: Leukemia MOLT-4; conditions: MOLT-4 (Leukemia), 10^−4 molar
Method: as §1

MDA-MB-435 = assay: NCI screen, growth of human tumor cells: Breast Cancer MDA-MB-435; conditions: MDA-MB-435, 10^−4 molar
Method in brief: as §2

MCF 7 = assay: NCI screen, growth of human tumor cells: Breast Cancer MCF 7; conditions: MCF 7 (Breast Cancer), 10^−4 molar
Method: as §1

SN12C = assay: NCI screen, growth of human tumor cells: Renal Cancer SN12C; conditions: SN12C (Renal Cancer), 10^−4 molar
Method in brief: as §2

HOP-62 = assay: NCI screen, growth of human tumor cells: Non-Small Cell Lung HOP-62; conditions: HOP-62, 10^−4 molar
Method in brief: as §2

human cancer cells = assay: NCI screen summary over the cancers tested (negative growth of human cancer cells); conditions: cancers with negative growth / cancers tested
Method: as §1
The derivatives in the tables are grouped using the same category as in the tables 1-6.

HT29 = assay: NCI screen, growth of human tumor cells: Colon Cancer HT29; conditions: HT29 (Colon Cancer), 10^−4 molar
Method: as §1

AS49/ATCC = assay: NCI screen, growth of human tumor cells: Non-Small Cell Lung AS49/ATCC; conditions: AS49/ATCC (Non-Small Cell Lung), 10^−4 molar
Method: as §1

IGROVI = assay: NCI screen, growth of human tumor cells: Ovarian Cancer IGROVI; conditions: IGROVI (Ovarian Cancer), 10^−4 molar
Method: as §1

COLO205 = assay: NCI screen, growth of human tumor cells: Colon Cancer COLO205; conditions: COLO205, 10^−4 molar
Method in brief: as §2

EKVX = assay: NCI screen, growth of human tumor cells: Non-Small Cell Lung EKVX; conditions: EKVX (Non-Small Cell Lung), 10^−4 molar
Method in brief: as §2

SK-OV-3 = assay: NCI screen, growth of human tumor cells: Ovarian Cancer SK-OV-3; conditions: SK-OV-3 (Ovarian Cancer), 10^−4 molar
Method: as §1

K562 = assay: NCI screen, growth of human tumor cells: Leukemia K562; conditions: K562 (Leukemia), 10^−4 molar
Method in brief: as §2

ACHN = assay: NCI screen, growth of human tumor cells: Renal Cancer ACHN; conditions: ACHN
Method in brief: as §2

OVCAR-5 = assay: NCI screen, growth of human tumor cells: Ovarian Cancer OVCAR-5; conditions: OVCAR-5, 10^−4 molar
Method: as §1

CCRF-CEM = assay: NCI screen, growth of human tumor cells: Leukemia CCRF-CEM; conditions: CCRF-CEM (Leukemia), 10^−4 molar
Method in brief: as §2

KM12 = assay: NCI screen, growth of human tumor cells: Colon Cancer KM12; conditions: KM12 (Colon Cancer), 10^−4 molar
Method in brief: as §2

RXF-393 = assay: NCI screen, growth of human tumor cells: Renal Cancer RXF-393; conditions: RXF-393 (Renal Cancer), 10^−4 molar
Method in brief: as §2

OVCAR-3 = assay: NCI screen, growth of human tumor cells: Ovarian Cancer OVCAR-3; conditions: OVCAR-3 (Ovarian Cancer), 10^−4 molar
Method in brief: as §2

786-0 = assay: NCI screen, growth of human tumor cells: Renal Cancer 786-0
Method: as §1

UACC-257 = assay: NCI screen, growth of human tumor cells: Melanoma UACC-257; conditions: UACC-257, 10^−4 molar
Method: as §1

NCI-H322M = assay: NCI screen, growth of human tumor cells: Non-Small Cell Lung NCI-H322M; conditions: NCI-H322M, 10^−4 molar
Method: as §1

U-251 = assay: NCI screen, growth of human tumor cells: CNS Cancer U-251; conditions: U-251 (CNS Cancer), 10^−4 molar
Method in brief: as §2

MALME-3M = assay: NCI screen, growth of human tumor cells: Melanoma MALME-3M; conditions: MALME-3M, 10^−4 molar
Method: as §1

OVCAR-4 = assay: NCI screen, growth of human tumor cells: Ovarian Cancer OVCAR-4; conditions: OVCAR-4 (Ovarian Cancer), 10^−4 molar
Method in brief: as §2

SF-539 = assay: NCI screen, growth of human tumor cells: CNS Cancer SF-539
Method in brief: as §2

DU-145 = assay: NCI screen, growth of human tumor cells: Prostate Cancer DU-145; conditions: DV-145, 10^−4 molar
Method in brief: as §2

MCF7/ADR-RES = assay: NCI screen, growth of human tumor cells: Breast Cancer MCF7/ADR-RES; conditions: MCF7/ADR-RES (Breast Cancer), 10^−4 molar
Method in brief: as §2

NCI-H522 = assay: NCI screen, growth of human tumor cells: Non-Small Cell Lung NCI-H522; conditions: NCI-H522, 10^−4 molar
Method: as §1

SK-MEL-5 = assay: NCI screen, growth of human tumor cells: Melanoma SK-MEL-5; conditions: SK-MEL-5, 10^−4 molar
Method in brief: as §2

SF-295 = assay: NCI screen, growth of human tumor cells: CNS Cancer SF-295
Method in brief: as §2

SF-268 = assay: NCI screen, growth of human tumor cells: CNS Cancer SF-268; conditions: SF-268 (CNS Cancer), 10^−4 molar
Method in brief: as §2

SK-MEL-28 = assay: NCI screen, growth of human tumor cells: Melanoma SK-MEL-28; conditions: SK-MEL-28, 10^−4 molar
Method: as §1

NCI-H460 = assay: NCI screen, growth of human tumor cells: Non-Small Cell Lung NCI-H460; conditions: NCI-H460 (Non-Small Cell Lung), 10^−4 molar
Method in brief: as §2

SR = assay: NCI screen, growth of human tumor cells: Leukemia SR; conditions: SR
Method in brief: as §2

HCT-116 = assay: NCI screen, growth of human tumor cells: Colon Cancer HCT-116; conditions: HCT-116 (Colon Cancer), 10^−4 molar
Method in brief: as §2

CAKI-1 = assay: NCI screen, growth of human tumor cells: Renal Cancer CAKI-1; conditions: CAKI-1 (Renal Cancer), 10^−4 molar
Method in brief: as §2

CC1=C(CC2(S(=O)(=O)C(F)(F)F)S(=O)(=O)OCCOS2(=O)=O)C(=O)c2ccccc2C1=O [NSC 720682, ethylene trifluorosulfonyl-(3-methyl-1,4-naphtho-2-quinolyl)-1,1-ethanedisulfonate]
percent of growth of human tumor cells (HL-60 (TB)): −22% | percent of growth of human tumor cells (RPMI-8226): −4% | percent of growth of human tumor cells (NCI-H226): −45% | % Growth (BT-549): −78% | % Growth (NCI-H23): −68% | percent of growth of human tumor cells (UO-31): 29% | % Growth (UACC-62; UACC-62, 10^−4 molar): −73% | % Growth (UACC-62; UACC-62, 10^−5 molar): 55% | % Growth (HCC-2998): −88% | % Growth (HCT-15): −72% | % Growth (M14): −90% | percent of growth of human tumor cells (SK-MEL-2): −58% | percent of growth of human tumor cells (MOLT-4): −11% | % Growth (MDA-MB-435): −86% | percent of growth of human tumor cells (MCF 7): 1% | percent of growth of human tumor cells (SN12C): −70% | % Growth (HOP-62): −96% | Percentage of cancers showing negative growth cancers tested (human cancer cells; 10^−4 M conc.): 81% | Percentage of cancers showing negative growth cancers tested (human cancer cells; 10^−5 M conc.): 17% | percent of growth of human tumor cells (HT29): −43% | percent of growth of human tumor cells (AS49/ATCC): −37% | percent of growth of human tumor cells (IGROVI): −18% | % Growth (COLO205): −88% | percent of growth of human tumor cells (EKVX): −36% | percent of growth of human tumor cells (SK-OV-3): 20% | percent of growth of human tumor cells (K562): −11% | % Growth (ACHN; 10^−4 molar): −21% | % Growth (ACHN; 10^−5 molar): 55% | % Growth (OVCAR-5): −87% | percent of growth of human tumor cells (CCRF-CEM): −5% | percent of growth of human tumor cells (KM12): 20% | percent of growth of human tumor cells (RXF-393): 24% | percent of growth of human tumor cells (OVCAR-3): −42% | % Growth (786-0; 786-0, 10^−4 molar): −20% | % Growth (786-0; 786-0, 10^−5 molar): 49% | % Growth (UACC-257): −64% | % Growth (NCI-H322M): −97% | percent of growth of human tumor cells (U-251): −36% | % Growth (MALME-3M): −89% | percent of growth of human tumor cells (OVCAR-4): −23% | % Growth (SF-539; SF-539, 10^−4 molar): −69% | % Growth (SF-539; SF-539, 10^−5 molar): 57% | % Growth (DU-145): −99% | percent of growth of human tumor cells (MCF7/ADR-RES): 1% | % Growth (NCI-H522): −72% | % Growth (SK-MEL-5): −91% | % Growth (SF-295; SF-295, 10^−4 molar): −78% | % Growth (SF-295; SF-295, 10^−5 molar): 53% | percent of growth of human tumor cells (SF-268): 1% | % Growth (SK-MEL-28): −85% | percent of growth of human tumor cells (NCI-H460): −59% | % Growth (SR; 10^−4 molar): −14% | % Growth (SR; 10^−5 molar): 30% | percent of growth of human tumor cells (HCT-116): 19% | percent of growth of human tumor cells (CAKI-1): 16%
